Assays:
K-562 = assay: MTT anti-proliferative assay, K-562; type: cell-based, human; conditions: Homo sapiens, K562
HepG-2 = assay: MTT anti-proliferative assay, HepG-2; type: cell-based, human; conditions: Homo sapiens, HepG2
caspase-3 = assay: Caspase-3 expression level in HepG-2 cells; type: cell-based, human; conditions: for Caspase-3 ± SE: HepG-2, at IC50 concentrations, control 0.460
Description: (§1) All synthesized compounds were tested at their cytotoxic concentrations in HepG-2 cells for analysis of gene expression levels of apoptotic markers caspase-3, caspase-9, TNF-α, and IL-6 proteins, and only two active compounds were tested for BAX and Bcl-2 proteins.
(§2) through Flow cytometric analysis.
(§3) Pellets were collected again and incubated with
(§4) Total RNA from vehicle-treated
(§5) (Thermo Scientific, USA).
(§6) All experiments were performed in […]

caspase-9 = assay: Caspase-9 expression level in HepG-2 cells; type: cell-based, human; conditions: for Caspase-9 ± SE: HepG-2, at IC50 concentrations, control 11.01
Description: as §1, §2, §3, §4, §5, §6

EGFR = EGFR (Homo sapiens, UniProt P00533); assay: EGFR kinase inhibition assay (ELISA kit)
Bcl-2 = Bcl-2 gene expression in HepG-2 cells; type: cell-based, human
Description: as §1, §2, §3, §4, §5, §6

TNF-alpha = TNF-alpha level in HepG-2 cells; type: cell-based, human; conditions: control 43.48
Description: as §1, §2, §3, §4, §5, §6

MCF-7 = assay: MTT anti-proliferative assay, MCF-7; type: cell-based, human; conditions: Homo sapiens, MCF7
BAX/Bcl-2 = BAX/Bcl-2 ratio in HepG-2 cells; type: cell-based, human
Description: as §1, §2, §3, §4, §5, §6

BAX = BAX gene expression in HepG-2 cells; type: cell-based, human
Description: as §1, §2, §3, §4, §5, §6

IL-6R = IL-6R level in HepG-2 cells; type: cell-based, human; conditions: control 44.10
Description: as §1, §2, §3, §4, §5, §6

VEGFR-2 = VEGFR-2 (Homo sapiens, UniProt P35968); assay: In vitro VEGFR-2 inhibitory assay (ELISA kit); conditions: VEGFR-2 kinase
Sequence of VEGFR-2 (P35968 20-1356): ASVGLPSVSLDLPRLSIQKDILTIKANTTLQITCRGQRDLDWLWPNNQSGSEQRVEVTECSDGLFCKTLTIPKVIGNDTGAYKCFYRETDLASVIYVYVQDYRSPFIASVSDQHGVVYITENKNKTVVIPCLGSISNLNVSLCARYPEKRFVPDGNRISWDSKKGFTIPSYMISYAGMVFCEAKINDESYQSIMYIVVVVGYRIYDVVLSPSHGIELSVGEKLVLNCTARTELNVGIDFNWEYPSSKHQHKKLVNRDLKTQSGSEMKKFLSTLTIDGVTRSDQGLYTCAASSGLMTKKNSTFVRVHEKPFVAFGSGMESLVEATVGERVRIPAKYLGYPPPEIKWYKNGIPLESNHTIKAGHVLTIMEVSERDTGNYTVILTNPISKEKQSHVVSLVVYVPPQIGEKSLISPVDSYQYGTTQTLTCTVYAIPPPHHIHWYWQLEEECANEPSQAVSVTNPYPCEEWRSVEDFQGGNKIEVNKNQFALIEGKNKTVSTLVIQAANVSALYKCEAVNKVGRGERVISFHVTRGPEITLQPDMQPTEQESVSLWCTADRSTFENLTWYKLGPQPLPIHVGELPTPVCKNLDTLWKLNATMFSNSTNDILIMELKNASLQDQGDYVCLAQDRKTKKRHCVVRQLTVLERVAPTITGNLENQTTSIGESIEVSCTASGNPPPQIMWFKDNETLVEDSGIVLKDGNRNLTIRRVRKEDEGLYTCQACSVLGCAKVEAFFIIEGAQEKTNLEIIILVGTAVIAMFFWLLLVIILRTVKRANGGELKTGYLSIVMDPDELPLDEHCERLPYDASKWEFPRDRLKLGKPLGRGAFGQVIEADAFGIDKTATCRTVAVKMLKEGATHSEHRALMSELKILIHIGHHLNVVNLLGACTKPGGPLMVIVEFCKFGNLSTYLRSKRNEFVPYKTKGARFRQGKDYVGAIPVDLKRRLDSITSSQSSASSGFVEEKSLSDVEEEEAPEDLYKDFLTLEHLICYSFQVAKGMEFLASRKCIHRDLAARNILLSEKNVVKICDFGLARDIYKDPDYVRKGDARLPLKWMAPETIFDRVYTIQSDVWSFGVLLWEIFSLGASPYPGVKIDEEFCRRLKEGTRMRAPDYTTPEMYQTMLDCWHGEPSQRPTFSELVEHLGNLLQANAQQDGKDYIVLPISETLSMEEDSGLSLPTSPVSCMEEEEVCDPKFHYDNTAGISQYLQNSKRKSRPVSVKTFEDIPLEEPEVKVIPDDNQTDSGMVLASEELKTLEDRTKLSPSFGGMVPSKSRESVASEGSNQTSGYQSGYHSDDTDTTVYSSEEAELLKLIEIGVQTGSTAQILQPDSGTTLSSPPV

Sequence of EGFR (P00533 25-1210): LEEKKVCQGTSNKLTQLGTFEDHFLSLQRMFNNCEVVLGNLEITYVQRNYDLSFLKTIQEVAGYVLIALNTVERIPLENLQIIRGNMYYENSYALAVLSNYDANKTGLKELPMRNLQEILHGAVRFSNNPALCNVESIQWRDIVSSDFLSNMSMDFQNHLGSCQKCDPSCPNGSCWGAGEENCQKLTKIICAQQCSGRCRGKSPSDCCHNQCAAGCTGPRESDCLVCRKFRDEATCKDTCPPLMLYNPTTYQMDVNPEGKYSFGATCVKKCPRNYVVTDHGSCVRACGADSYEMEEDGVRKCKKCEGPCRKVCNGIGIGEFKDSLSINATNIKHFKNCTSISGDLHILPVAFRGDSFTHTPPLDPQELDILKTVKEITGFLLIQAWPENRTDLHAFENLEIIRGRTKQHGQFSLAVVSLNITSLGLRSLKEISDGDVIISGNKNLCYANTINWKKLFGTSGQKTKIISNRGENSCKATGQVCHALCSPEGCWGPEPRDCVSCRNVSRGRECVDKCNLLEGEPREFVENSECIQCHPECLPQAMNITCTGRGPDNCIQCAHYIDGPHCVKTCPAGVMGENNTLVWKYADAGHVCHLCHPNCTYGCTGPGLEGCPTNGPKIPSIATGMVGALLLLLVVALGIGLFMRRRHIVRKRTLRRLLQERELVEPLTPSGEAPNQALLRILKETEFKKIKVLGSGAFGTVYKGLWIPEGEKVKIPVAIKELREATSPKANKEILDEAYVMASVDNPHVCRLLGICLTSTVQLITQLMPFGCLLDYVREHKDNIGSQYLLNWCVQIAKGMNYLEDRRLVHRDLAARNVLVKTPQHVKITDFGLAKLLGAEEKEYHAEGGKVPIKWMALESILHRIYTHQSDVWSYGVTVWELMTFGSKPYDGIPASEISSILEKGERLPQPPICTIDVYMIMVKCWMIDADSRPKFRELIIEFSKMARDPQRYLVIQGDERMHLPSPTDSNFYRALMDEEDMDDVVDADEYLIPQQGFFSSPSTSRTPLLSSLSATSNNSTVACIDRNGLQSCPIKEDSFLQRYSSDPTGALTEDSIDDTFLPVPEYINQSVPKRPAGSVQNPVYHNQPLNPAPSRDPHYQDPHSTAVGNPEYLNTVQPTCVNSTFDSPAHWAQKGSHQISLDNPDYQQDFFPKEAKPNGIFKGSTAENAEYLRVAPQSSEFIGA

O=C(Cn1cnc2cc([N+](=O)[O-])ccc2c1=O)Nc1ccccc1 [9a, 2-(7-Nitro-4-oxoquinazolin-3(4H)-yl)-N-phenylacetamide]
viability at 0.195 µmol (K-562; K-562, 0.195 umol): 66.6%
cytotoxicity at 0.195 µmol (K-562; K-562, 0.195 umol, read-out: Toxicity %): 33.4%
viability at 0.391 µmol (K-562; K-562, 0.391 umol): 49.6%
cytotoxicity at 0.391 µmol (K-562; K-562, 0.391 umol, read-out: Toxicity %): 50.4%
viability at 0.781 µmol (K-562; K-562, 0.781 umol): 30.8%
cytotoxicity at 0.781 µmol (K-562; K-562, 0.781 umol, read-out: Toxicity %): 69.2%
viability at 1.563 µmol (K-562; K-562, 1.563 umol): 16.5%
cytotoxicity at 1.563 µmol (K-562; K-562, 1.563 umol, read-out: Toxicity %): 83.5%
viability at 3.125 µmol (K-562; K-562, 3.125 umol): 8.91%
cytotoxicity at 3.125 µmol (K-562; K-562, 3.125 umol, read-out: Toxicity %): 91.1%
viability at 6.25 µmol (K-562; K-562, 6.25 umol): 8.78%
cytotoxicity at 6.25 µmol (K-562; K-562, 6.25 umol, read-out: Toxicity %): 91.2%
viability at 12.5 µmol (K-562; K-562, 12.5 umol): 7.76%
cytotoxicity at 12.5 µmol (K-562; K-562, 12.5 umol, read-out: Toxicity %): 92.2%
viability at 25 µmol (K-562; K-562, 25 umol): 7.02%
cytotoxicity at 25 µmol (K-562; K-562, 25 umol, read-out: Toxicity %): 93%
IC50 (K-562; MTT, K-562, read-out: Cytotoxicity against cancer cells IC50 K-562): 385.8 ± 3.2 nM
viability at 0.195 µg/mL (HepG-2; HepG-2, 0.195 ug/ml): 45.9%
cytotoxicity at 0.195 µg/mL (HepG-2; HepG-2, 0.195 ug/ml, read-out: Toxicity %): 54.1%
viability at 0.391 µg/mL (HepG-2; HepG-2, 0.391 ug/ml): 29.7%
cytotoxicity at 0.391 µg/mL (HepG-2; HepG-2, 0.391 ug/ml, read-out: Toxicity %): 70.3%
viability at 0.781 µg/mL (HepG-2; HepG-2, 0.781 ug/ml): 21%
cytotoxicity at 0.781 µg/mL (HepG-2; HepG-2, 0.781 ug/ml, read-out: Toxicity %): 79%
viability at 1.563 µg/mL (HepG-2; HepG-2, 1.563 ug/ml): 12.7%
cytotoxicity at 1.563 µg/mL (HepG-2; HepG-2, 1.563 ug/ml, read-out: Toxicity %): 87.3%
viability at 3.125 µg/mL (HepG-2; HepG-2, 3.125 ug/ml): 9.56%
cytotoxicity at 3.125 µg/mL (HepG-2; HepG-2, 3.125 ug/ml, read-out: Toxicity %): 90.4%
viability at 6.25 µg/mL (HepG-2; HepG-2, 6.25 ug/ml): 6.96%
cytotoxicity at 6.25 µg/mL (HepG-2; HepG-2, 6.25 ug/ml, read-out: Toxicity %): 93%
viability at 12.5 µg/mL (HepG-2; HepG-2, 12.5 ug/ml): 6.04%
cytotoxicity at 12.5 µg/mL (HepG-2; HepG-2, 12.5 ug/ml, read-out: Toxicity %): 94%
viability at 25 µg/mL (HepG-2; HepG-2, 25 ug/ml): 5.71%
cytotoxicity at 25 µg/mL (HepG-2; HepG-2, 25 ug/ml, read-out: Toxicity %): 94.3%
IC50 (HepG-2; MTT, HepG-2, read-out: Cytotoxicity against cancer cells IC50 HepG-2): 187.1 ± 1.7 nM
Caspase-3 ± SE (caspase-3): 0.98 ± 0.04 ng/mL
Caspase-3 ± SE (caspase-3; listed as N1): 0.98 ng/mL
caspase-3 expression level, fold increase (caspase-3; HepG-2, vs control cells): 2.1 fold
Caspase-9 ± SE (caspase-9): 30.57 ± 3.39 ng/L
Caspase-9 ± SE (caspase-9; listed as N1): 30.57 ng/L
caspase-9 expression level, fold increase (caspase-9; HepG-2, vs control cells): 2.77 fold
Activity % (EGFR; HepG2): 16.297%
Inhibition % (EGFR; HepG2): 83.703%
Activity % (EGFR; K-562): 21.954%
Inhibition % (EGFR; K-562): 78.046%
Activity % (EGFR; MCF7): 19.563%
Inhibition % (EGFR; MCF7): 80.437%
fold reduction in Bcl-2 expression level (Bcl-2; HepG-2, vs control): 2.8 fold
Bcl-2 expression level (Bcl-2; HepG-2, control 3.49): 1.23 fold change
Gene expression (fold change) Bcl-2 (Bcl-2; HepG-2, control 3.4983): 1.2368 ± 0.30 fold change
TNF-alpha ±SE (TNF-alpha; HepG-2, at IC50 concentrations): 23.6 ± 1.35 ng/L
TNF-alpha ±SE (TNF-alpha; raw data, HepG2): 9.13 ng/L
viability at 0.195 µmol (MCF-7; MCF-7, 0.195 umol): 56.6%
cytotoxicity at 0.195 µmol (MCF-7; MCF-7, 0.195 umol, read-out: Toxicity %): 43.4%
viability at 0.391 µmol (MCF-7; MCF-7, 0.391 umol): 41.8%
cytotoxicity at 0.391 µmol (MCF-7; MCF-7, 0.391 umol, read-out: Toxicity %): 58.2%
viability at 0.781 µmol (MCF-7; MCF-7, 0.781 umol): 27.6%
cytotoxicity at 0.781 µmol (MCF-7; MCF-7, 0.781 umol, read-out: Toxicity %): 72.4%
viability at 1.563 µmol (MCF-7; MCF-7, 1.563 umol): 13.5%
cytotoxicity at 1.563 µmol (MCF-7; MCF-7, 1.563 umol, read-out: Toxicity %): 86.5%
viability at 3.125 µmol (MCF-7; MCF-7, 3.125 umol): 9.94%
cytotoxicity at 3.125 µmol (MCF-7; MCF-7, 3.125 umol, read-out: Toxicity %): 90.1%
viability at 6.25 µmol (MCF-7; MCF-7, 6.25 umol): 8.66%
cytotoxicity at 6.25 µmol (MCF-7; MCF-7, 6.25 umol, read-out: Toxicity %): 91.3%
viability at 12.5 µmol (MCF-7; MCF-7, 12.5 umol): 6.99%
cytotoxicity at 12.5 µmol (MCF-7; MCF-7, 12.5 umol, read-out: Toxicity %): 93%
viability at 25 µmol (MCF-7; MCF-7, 25 umol): 6.42%
cytotoxicity at 25 µmol (MCF-7; MCF-7, 25 umol, read-out: Toxicity %): 93.6%
IC50 (MCF-7; MTT, MCF-7, read-out: Cytotoxicity against cancer cells IC50 MCF-7): 282.4 ± 1.4 nM
Gene expression (fold change) BAX/Bcl-2 ratio (BAX/Bcl-2; control 0.1260): 2.1544 ± 0.96
BAX/Bcl-2 ratio (BAX/Bcl-2; control […]): 2.15
fold increase in BAX expression level (BAX; HepG-2, vs control): 6 fold
BAX expression level (BAX; HepG-2, control 0.44): 2.65 fold change
Gene expression (fold change) BAX (BAX; HepG-2, control 0.4448): 2.6533 ± 0.40 fold change
IL-6R ± SE (IL-6R; HepG-2, at IC50 concentrations): 26.0 ± 0.97 ng/L
IL-6 ±SE (IL-6R; raw data, HepG2): 14.73 ng/L
Activity % (VEGFR-2; HepG2): 14.760%
Inhibition % (VEGFR-2; HepG2): 85.240%
Activity % (VEGFR-2; K-562): 35.983%
Inhibition % (VEGFR-2; K-562): 64.017%
Activity % (VEGFR-2; MCF7): 19.964%
Inhibition % (VEGFR-2; MCF7): 80.036%

From article PMC12377202, “Design, synthesis, and cytotoxic evaluation of quinazoline-based derivatives as VEGER-2 inhibitors: comparative study against EGFR kinase activity, induction of apoptosis, and molecular docking study” (RSC Advances, 2025)
